Assay [1] deals with Staph.aureus 6538P. The experiment in a line: Minimum Inhibitory Concentration (MIC), broth dilution method. The class given is cell-based. To be noted: Staphylococcus aureus, inoculum size 10^6 /ml. (In general: In broth dilution the organism is exposed to a series of concentrations in liquid medium.)
The test system of assay [2] is Staph.aureus MS353 C36. The description is as above. Type of assay: cell-based. The following applies: Staphylococcus aureus, MS353C36, Staph.aureus MS353 C36, inoculum size 10^6 /ml. The text has this:
(§1) Minimum Inhibitory Concentration (MIC) μg/ml
(§2) clinical isolates (macrolide resistant Agroup strains) inoculum size
(§3) 10^6 /ml, broth dilution method.

Assay [3] deals with Staph.aureus MS353. Described as above. The following applies: Staphylococcus aureus, inoculum size 10^6 /ml. The class given is cell-based.
Excerpt: as §1, §2, §3

Assay [4] has as its system Strept.faecalis 1501. Described as above. The class given is cell-based. The following applies: for MIC: Enterococcus faecalis, 1501, Strept.faecalis 1501, inoculum size 10^6 /ml.
The subject of assay [5] is Staph. aureus 0116. The description is as above. To be noted: inoculum size 10^6 /ml; for MIC: Staphylococcus aureus, 0116, Staph. aureus 0116, macrolide resistant clinical isolate (A group). Type of assay: cell-based.
Excerpt: as §1
(§4) *Erythromycin, oleandomycin, 16membered macrolide resistant strains of
as §2, §3

For assay [6], the system named is Staph.aureus 0119. The assay is described as above. The following applies: inoculum size 10^6 /ml; for MIC: Staphylococcus aureus, 0119, Staph.aureus 0119, macrolide resistant clinical isolate (A group). Type of assay: cell-based.
Excerpt: as §1, §4, §2, §3

For assay [7], the system named is Staph.aureus MS 353AO. Described as above. Type of assay: cell-based. To be noted: macrolide resistant clinical isolate (A group), inoculum size 10^6 /ml; for MIC: Staphylococcus aureus, MS353AO.
Excerpt: as §1, §4, §2, §3

For assay [8], the system named is Strept.pyogenes 1022. The assay is described as above. The following applies: inoculum size 10^6 /ml; for MIC: Streptococcus pyogenes, 1022, Strept.pyogenes 1022, macrolide resistant clinical isolate (A group). The class given is cell-based.
Excerpt: as §1, §4, §2, §3

Assay [9] in a line: Potency as compared with standard leucomycin.

SMILES strings stand for the structures. In brackets after ≈: the same amount, converted by molar mass.

What is called MIC is the lowest concentration that inhibits growth of the organism. The low end stands for a more susceptible organism, the high end for a less susceptible organism. With `CCCC(=O)OC1C(C)OC(OC2C(C)OC(OC3C(CC=O)CC(C)C(O)C=CC=CCC(C)OC(=O)CC(OC(C)=O)C3OC)C(O)C2N(C)C)CC1(C)OC(C)=O` (stereo not shown) [3,3"-diacetyl LM-A5, 3,3"-diacetylleucomycin A5], the MIC was 1.6 µg/mL (≈ 1.87 µM) in assay [1]; 0.8 µg/mL (≈ 0.935 µM) in assay [2]; 1.6 µg/mL (≈ 1.87 µM) in assay [3]; 1.6 µg/mL (≈ 1.87 µM) in assay [4]; 50 µg/mL (≈ 58.4 µM) in assay [5]; above 100 µg/mL in assay [6]. Besides, the MIC in assay [7] is above 100 µg/mL; in [8], 1.6 µg/mL (≈ 1.87 µM).

For `CCCC(=O)OC1C(C)OC(OC2C(C)OC(OC3C(CC=O)CC(C)C(O)C=CC=CCC(C)OC(=O)CC(O)C3OC)C(O)C2N(C)C)CC1(C)OC(C)=O` (stereo not shown) [3"-acetyl LM-A5, 3"-acetyl leucomycin A5], the MIC in assay [1] was 1.6 µg/mL (≈ 1.97 µM); in assay [3], 1.6 µg/mL (≈ 1.97 µM); in [4], 0.8 µg/mL (≈ 0.983 µM); in assay [5] it was 6.3 µg/mL (≈ 7.74 µM); in assay [6], 100 µg/mL (≈ 123 µM); in assay [7], above 100 µg/mL. In assay [8], this compound had an MIC of 0.4 µg/mL (≈ 0.491 µM). For the same compound, the “Minimum Inhibitory Concentration (MIC)” value was 1.6 µg/mL in [4] (Strept.faecalis 1501, inoculum size 10^6 /ml); 12.5 µg/mL in assay [5] (Staph. aureus 0116, macrolide resistant clinical isolate (A group)); above 100 µg/mL in [6] (Staph.aureus 0119, macrolide resistant clinical isolate (A group)); 100 µg/mL in assay [7]; 0.8 µg/mL in assay [8] (Strept.pyogenes 1022, macrolide resistant clinical isolate (A group)). Also, in assay [9], the Potency came to 2850 µg/mg.

On to `CCCC(=O)OC1C(C)OC(OC2C(C)OC(OC3C(CC=O)CC(C)C(O)C=CC=CCC(C)OC(=O)CC(O)C3OC)C(O)C2N(C)C)CC1(C)OC(=O)CCC` (stereo not shown) [3"butylyl LM-A5, 3"-butylyl leucomycin A5], for which the minimum inhibitory concentration (MIC) in assay [1] stood at 0.8 µg/mL (≈ 0.95 µM); in assay [2] it was 0.4 µg/mL (≈ 0.475 µM); in [3] it was 1.6 µg/mL (≈ 1.9 µM); in assay [4] it was 0.8 µg/mL (≈ 0.95 µM); in assay [5], 50 µg/mL (≈ 59.4 µM); in assay [6] it was 100 µg/mL (≈ 119 µM). In addition, the MIC in assay [7] is above 100 µg/mL; in assay [8] it was 0.8 µg/mL (≈ 0.95 µM).

In the case of `CCCC(=O)OC1C(C)OC(OC2C(C)OC(OC3C(CC=O)CC(C)C(OC(C)=O)C=CC=CCC(C)OC(=O)CC(O)C3OC)C(O)C2N(C)C)CC1(C)OC(C)=O` (stereo not shown) [9,3"-diacetyl LM-A5, 9,3"-diacetyl leucomycin A5], the minimum inhibitory concentration (MIC) came out at 0.8 µg/mL (≈ 0.935 µM) in assay [1]; 0.8 µg/mL (≈ 0.935 µM) in assay [2]; 1.6 µg/mL (≈ 1.87 µM) in [3]; 1.6 µg/mL (≈ 1.87 µM) in assay [4]; 12.5 µg/mL (≈ 14.6 µM) in assay [5]; 100 µg/mL (≈ 117 µM) in [6]. Further, the MIC was above 100 µg/mL in assay [7] and 0.4 µg/mL (≈ 0.467 µM) in assay [8].

As to `CCCC(=O)OC1C(C)OC(OC2C(C)OC(OC3C(CC=O)CC(C)C(O)C=CC=CCC(C)OC(=O)CC(O)C3OC)C(O)C2N(C)C)CC1(C)O` (stereo not shown) [LM-A5, Leucomycin A5, reference compound], the MIC in assay [1] is 1.6 µg/mL (≈ 2.07 µM); in assay [2], 1.6 µg/mL (≈ 2.07 µM); in assay [3], 1.6 µg/mL (≈ 2.07 µM); in assay [4] it was 1.6 µg/mL (≈ 2.07 µM); in [5], above 100 µg/mL; in [6], above 100 µg/mL. Also, the MIC in assay [7] and in [8] was above 100 µg/mL each time.

As to `CCCC(=O)OC1(C)CC(OC2C(C)OC(OC3C(CC=O)CC(C)C(O)C=CC=CCC(C)OC(=O)CC(O)C3OC)C(O)C2N(C)C)OC(C)C1OC(C)=O` (stereo not shown) [4"-acetyl-3"-butylyl LM-A5, 4"-acetyl-3"-butylyl leucomycin V], the MIC in assay [1] is 1.6 µg/mL (≈ 1.97 µM); in [2], 0.8 µg/mL (≈ 0.983 µM); in [3], 1.6 µg/mL (≈ 1.97 µM); in assay [4] it was 0.8 µg/mL (≈ 0.983 µM); in [5], 50 µg/mL (≈ 61.4 µM); in assay [6], above 100 µg/mL. Further, the MIC in assay [7] was 25 µg/mL (≈ 30.7 µM); in assay [8], 6.3 µg/mL (≈ 7.74 µM).

Turning to `CCCC(=O)OC1C(C)OC(OC2C(C)OC(OC3C(CC=O)CC(C)C(O)C=CC=CCC(C)OC(=O)CC(O)C3OC)C(O)C2N(C)C)CC1(C)OC(=O)CC` (stereo not shown) [3"-propionyl LM-A5, 3"-propionyl leucomycin A5], the MIC in assay [1] was 0.8 µg/mL (≈ 0.966 µM); in [2] it was 0.8 µg/mL (≈ 0.966 µM); in assay [3] it was 1.6 µg/mL (≈ 1.93 µM); in assay [4] it was 0.8 µg/mL (≈ 0.966 µM); in assay [5], 12.5 µg/mL (≈ 15.1 µM); in assay [6] it was above 100 µg/mL. The values for the MIC in assay [7] and in assay [8] were above 100 µg/mL and 0.4 µg/mL (≈ 0.483 µM), respectively. Also, the Potency in [9] was 2850 µg/mg.

With `COC1C(OC(C)=O)CC(=O)OC(C)CC=CC=CC(O)C(C)CC(CC=O)C1OC1OC(C)C(OC2CC(C)(O)C(OC(=O)CC(C)C)C(C)O2)C(N(C)C)C1O` (stereo not shown) [LM-A3, Leucomycin A3, reference compound], the MIC in assay [1] was 3.1 µg/mL (≈ 3.74 µM); in assay [2] it was 1.6 µg/mL (≈ 1.93 µM); in assay [3], 3.1 µg/mL (≈ 3.74 µM); in [4], 3.1 µg/mL (≈ 3.74 µM); in assay [5], above 100 µg/mL; in assay [6], above 100 µg/mL. The MIC in assay [7] and in assay [8] was above 100 µg/mL in each case.

Values taken from patent publication US4242504A, “3"-Acylated macrolide antibiotics” (Toyo Jozo Kabushiki Kaisha, priority 1978, dated 1980).
